Results from ChEMBL document CHEMBL3352701, “Discovery of a 1,2-bis(3-indolyl)ethane that selectively inhibits the pyruvate kinase of methicillin-resistant Staphylococcus aureus over human isoforms” (Bioorg Med Chem Lett, 2014).
≈ marks a conversion by molar mass, not a printed value.

Assays:
Pyruvate kinase = biological target: T1, Pyruvate kinase (Staphylococcus aureus (strain MRSA252), UniProt Q6GG09); experiment: Inhibition of purified methicillin-resistant Staphylococcus aureus N-terminal His-tagged pyruvate kinase by LDH-coupled continuous assay
T1 sequence (Q6GG09 whole entry): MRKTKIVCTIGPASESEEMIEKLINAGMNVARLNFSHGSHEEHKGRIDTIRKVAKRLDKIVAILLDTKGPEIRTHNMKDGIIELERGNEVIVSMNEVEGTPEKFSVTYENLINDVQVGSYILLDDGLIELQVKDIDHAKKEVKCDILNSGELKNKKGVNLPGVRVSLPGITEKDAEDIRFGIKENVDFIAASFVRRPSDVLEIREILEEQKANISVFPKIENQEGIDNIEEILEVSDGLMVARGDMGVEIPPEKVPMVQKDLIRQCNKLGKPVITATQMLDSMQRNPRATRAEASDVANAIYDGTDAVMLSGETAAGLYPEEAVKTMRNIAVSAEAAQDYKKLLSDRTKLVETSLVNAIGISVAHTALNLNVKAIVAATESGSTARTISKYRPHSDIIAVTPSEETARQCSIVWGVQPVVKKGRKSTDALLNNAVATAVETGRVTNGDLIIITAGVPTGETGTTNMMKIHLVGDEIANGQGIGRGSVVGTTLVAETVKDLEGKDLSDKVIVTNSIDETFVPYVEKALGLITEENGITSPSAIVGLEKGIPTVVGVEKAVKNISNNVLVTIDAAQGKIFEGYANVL

Pyruvate kinase PKM [1] = biological target: T2, Pyruvate kinase PKM (Homo sapiens, UniProt P14618); experiment: Inhibition of purified human N-terminal His-tagged PK-M1 at 40 uM by LDH-coupled continuous assay
Target sequence in this assay (P14618 2-531 limits assumed): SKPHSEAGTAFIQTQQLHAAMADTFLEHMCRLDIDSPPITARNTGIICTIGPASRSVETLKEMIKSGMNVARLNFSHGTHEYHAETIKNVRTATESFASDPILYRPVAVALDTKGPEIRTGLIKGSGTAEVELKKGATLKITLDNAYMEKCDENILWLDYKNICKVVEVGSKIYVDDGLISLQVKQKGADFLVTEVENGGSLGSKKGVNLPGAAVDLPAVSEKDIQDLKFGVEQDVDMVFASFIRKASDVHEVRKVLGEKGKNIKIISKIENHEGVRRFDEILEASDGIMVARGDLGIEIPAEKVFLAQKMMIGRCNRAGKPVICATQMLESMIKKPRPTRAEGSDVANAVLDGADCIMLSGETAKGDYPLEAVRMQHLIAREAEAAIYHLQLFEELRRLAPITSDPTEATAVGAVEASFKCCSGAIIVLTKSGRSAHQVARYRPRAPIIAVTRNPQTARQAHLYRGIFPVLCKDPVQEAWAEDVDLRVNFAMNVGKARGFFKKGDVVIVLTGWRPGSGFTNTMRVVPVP

Pyruvate kinase PKM [2] = biological target: T2, Pyruvate kinase PKM; experiment: Inhibition of purified human N-terminal His-tagged PK-M2 at 40 uM by LDH-coupled continuous assay
Target sequence in this assay (P14618 2-531 limits assumed): as above

Pyruvate kinase PKLR [3] = biological target: T3, Pyruvate kinase PKLR (Homo sapiens, UniProt P30613); experiment: Inhibition of purified human N-terminal His-tagged PK-R at 40 uM by LDH-coupled continuous assay
Target sequence in this assay (P30613 whole entry, looked up): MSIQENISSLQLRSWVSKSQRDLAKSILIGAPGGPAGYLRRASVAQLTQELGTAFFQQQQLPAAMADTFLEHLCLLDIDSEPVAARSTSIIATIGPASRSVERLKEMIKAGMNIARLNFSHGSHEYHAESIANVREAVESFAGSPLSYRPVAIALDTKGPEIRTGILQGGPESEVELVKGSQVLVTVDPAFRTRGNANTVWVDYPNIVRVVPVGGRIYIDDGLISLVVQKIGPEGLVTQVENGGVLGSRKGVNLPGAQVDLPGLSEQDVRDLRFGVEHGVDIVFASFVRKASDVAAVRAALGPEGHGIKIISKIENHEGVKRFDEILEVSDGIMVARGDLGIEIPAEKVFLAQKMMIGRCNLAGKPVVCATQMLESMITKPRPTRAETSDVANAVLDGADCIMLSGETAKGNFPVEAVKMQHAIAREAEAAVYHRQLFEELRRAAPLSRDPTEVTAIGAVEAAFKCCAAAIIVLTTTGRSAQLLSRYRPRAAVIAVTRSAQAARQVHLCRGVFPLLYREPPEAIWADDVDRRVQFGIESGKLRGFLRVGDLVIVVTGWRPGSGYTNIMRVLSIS

Pyruvate kinase PKLR [4] = biological target: T3, Pyruvate kinase PKLR; experiment: Inhibition of purified human N-terminal His-tagged PK-L at 40 uM by LDH-coupled continuous assay
Target sequence in this assay (P30613 whole entry, looked up): as above

[5] = biological target: T4, Pyruvate kinase (Staphylococcus aureus (strain MRSA252)) (UniProt Q6GG09); conditions: 40 uM
T4 sequence (whole entry): T1 sequence (Q6GG09 whole entry)
Description: Inhibition of purified methicillin-resistant Staphylococcus aureus N-terminal His-tagged pyruvate kinase at 40 uM by LDH-coupled continuous assay

[6] = biological target: T4, Pyruvate kinase (Staphylococcus aureus (strain MRSA252)); experiment: Inhibition of purified methicillin-resistant Staphylococcus aureus N-terminal His-tagged pyruvate kinase at 50 uM by LDH-coupled continuous assay
Pyruvate kinase PKM [7] = biological target: T2, Pyruvate kinase PKM; experiment: Inhibition of purified human N-terminal His-tagged PK-M1 at 50 uM by LDH-coupled continuous assay
Target sequence in this assay (P14618 2-531 limits assumed): as the sequence (P14618 2-531 limits assumed) above

Pyruvate kinase PKM [8] = biological target: T2, Pyruvate kinase PKM; experiment: Inhibition of purified human N-terminal His-tagged PK-M2 at 50 uM by LDH-coupled continuous assay
Target sequence in this assay (P14618 2-531 limits assumed): as above

Pyruvate kinase PKLR [9] = biological target: T3, Pyruvate kinase PKLR; experiment: Inhibition of purified human N-terminal His-tagged PK-R at 50 uM by LDH-coupled continuous assay
Target sequence in this assay (P30613 whole entry, looked up): as the sequence (P30613 whole entry, looked up) above

Pyruvate kinase PKLR [10] = biological target: T3, Pyruvate kinase PKLR; experiment: Inhibition of purified human N-terminal His-tagged PK-L at 50 uM by LDH-coupled continuous assay
Target sequence in this assay (P30613 whole entry, looked up): as above

[11] = biological target: T4, Pyruvate kinase (Staphylococcus aureus (strain MRSA252)); experiment: Inhibition of purified methicillin-resistant Staphylococcus aureus N-terminal His-tagged pyruvate kinase at 100 uM by LDH-coupled continuous assay
Pyruvate kinase PKM [12] = biological target: T2, Pyruvate kinase PKM; experiment: Inhibition of purified human N-terminal His-tagged PK-M1 at 100 uM by LDH-coupled continuous assay
Target sequence in this assay (P14618 2-531 limits assumed): as the sequence (P14618 2-531 limits assumed) above

Pyruvate kinase PKM [13] = biological target: T2, Pyruvate kinase PKM; experiment: Inhibition of purified human N-terminal His-tagged PK-M2 at 100 uM by LDH-coupled continuous assay
Target sequence in this assay (P14618 2-531 limits assumed): as above

Pyruvate kinase PKLR [14] = biological target: T3, Pyruvate kinase PKLR; experiment: Inhibition of purified human N-terminal His-tagged PK-R at 100 uM by LDH-coupled continuous assay
Target sequence in this assay (P30613 whole entry, looked up): as the sequence (P30613 whole entry, looked up) above

Pyruvate kinase PKLR [15] = biological target: T3, Pyruvate kinase PKLR; experiment: Inhibition of purified human N-terminal His-tagged PK-L at 100 uM by LDH-coupled continuous assay
Target sequence in this assay (P30613 whole entry, looked up): as above

[16] = biological target: T4, Pyruvate kinase (Staphylococcus aureus (strain MRSA252)); experiment: Inhibition of purified methicillin-resistant Staphylococcus aureus N-terminal His-tagged pyruvate kinase at 150 uM by LDH-coupled continuous assay
Pyruvate kinase PKM [17] = biological target: T2, Pyruvate kinase PKM; experiment: Inhibition of purified human N-terminal His-tagged PK-M1 at 150 uM by LDH-coupled continuous assay
Pyruvate kinase PKM [18] = biological target: T2, Pyruvate kinase PKM; experiment: Inhibition of purified human N-terminal His-tagged PK-M2 at 150 uM by LDH-coupled continuous assay
Pyruvate kinase PKLR [19] = biological target: T3, Pyruvate kinase PKLR; experiment: Inhibition of purified human N-terminal His-tagged PK-R at 150 uM by LDH-coupled continuous assay
Pyruvate kinase PKLR [20] = biological target: T3, Pyruvate kinase PKLR; experiment: Inhibition of purified human N-terminal His-tagged PK-L at 150 uM by LDH-coupled continuous assay
Staphylococcus aureus = experiment: Antimicrobial activity against Staphylococcus aureus ATCC 29213 after 24 hrs by CLSI microtiter method; type: functional; conditions: ATCC 29213, 24 h
Pyruvate kinase PKM [21] = biological target: T2, Pyruvate kinase PKM; experiment: Inhibition of purified human N-terminal His-tagged PK-M1 by LDH-coupled continuous assay
Target sequence in this assay (P14618 whole entry): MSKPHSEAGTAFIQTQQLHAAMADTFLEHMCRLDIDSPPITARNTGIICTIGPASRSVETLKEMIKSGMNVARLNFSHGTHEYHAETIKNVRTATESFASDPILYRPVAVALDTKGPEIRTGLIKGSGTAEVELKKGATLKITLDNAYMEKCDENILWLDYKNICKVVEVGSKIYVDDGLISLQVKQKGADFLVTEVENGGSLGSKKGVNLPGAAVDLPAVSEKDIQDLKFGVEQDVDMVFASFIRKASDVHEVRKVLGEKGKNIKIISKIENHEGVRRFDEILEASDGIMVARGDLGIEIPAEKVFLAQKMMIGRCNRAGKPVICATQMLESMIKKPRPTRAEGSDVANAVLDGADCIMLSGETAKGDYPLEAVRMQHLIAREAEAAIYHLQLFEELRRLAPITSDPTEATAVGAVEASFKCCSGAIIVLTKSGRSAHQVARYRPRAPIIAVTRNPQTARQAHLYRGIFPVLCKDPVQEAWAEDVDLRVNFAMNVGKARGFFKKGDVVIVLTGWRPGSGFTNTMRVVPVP

Pyruvate kinase PKM [22] = biological target: T2, Pyruvate kinase PKM; experiment: Inhibition of purified human N-terminal His-tagged PK-M2 by LDH-coupled continuous assay
Target sequence in this assay (P14618 whole entry): as above

Pyruvate kinase PKLR [23] = biological target: T3, Pyruvate kinase PKLR; experiment: Inhibition of purified human N-terminal His-tagged PK-R by LDH-coupled continuous assay
Target sequence in this assay (P30613 whole entry): as the sequence (P30613 whole entry, looked up) above

Pyruvate kinase PKLR [24] = biological target: T3, Pyruvate kinase PKLR; experiment: Inhibition of purified human N-terminal His-tagged PK-L by LDH-coupled continuous assay
Target sequence in this assay (P30613 whole entry): as the sequence (P30613 whole entry, looked up) above

[25] = biological target: T4, Pyruvate kinase (Staphylococcus aureus (strain MRSA252)); experiment: Inhibition of purified methicillin-resistant Staphylococcus aureus N-terminal His-tagged pyruvate kinase at 10 uM by LDH-coupled continuous assay
Pyruvate kinase PKM [26] = biological target: T2, Pyruvate kinase PKM; conditions: 10 uM
Description: Inhibition of purified human N-terminal His-tagged PK-M1 at 10 uM by LDH-coupled continuous assay

Pyruvate kinase PKM [27] = biological target: T2, Pyruvate kinase PKM; conditions: 10 uM; remark: listed apart in the source
Description: Inhibition of purified human N-terminal His-tagged PK-M2 at 10 uM by LDH-coupled continuous assay

Pyruvate kinase PKLR [28] = biological target: T3, Pyruvate kinase PKLR; conditions: 10 uM
Description: Inhibition of purified human N-terminal His-tagged PK-R at 10 uM by LDH-coupled continuous assay

Pyruvate kinase PKLR [29] = biological target: T3, Pyruvate kinase PKLR; conditions: 10 uM; remark: listed apart in the source
Description: Inhibition of purified human N-terminal His-tagged PK-L at 10 uM by LDH-coupled continuous assay

N#Cc1ccc2[nH]cc(CCc3c[nH]c4ccccc34)c2c1
IC50 (Pyruvate kinase; read-out: IC50): 4.2 µM | inhibition (Pyruvate kinase PKM [1]): -0.5% | inhibition (Pyruvate kinase PKM [2]): 1.1% | inhibition (Pyruvate kinase PKLR [3]): 53.5% | inhibition (Pyruvate kinase PKLR [4]): 62.4% | inhibition [5]: 82.9%

CCN(C(C)=O)c1ccc2c(CCc3c[nH]c4ccccc34)c[nH]c2c1
IC50 (Pyruvate kinase; read-out: IC50): 148 µM

c1ccc2c(CCc3c[nH]c4ccccc34)c[nH]c2c1
IC50 (Pyruvate kinase; read-out: IC50): 57.3 µM

O=[N+]([O-])c1cccc2[nH]cc(CCc3c[nH]c4ccccc34)c12
IC50 (Pyruvate kinase; read-out: IC50): 5.7 µM | inhibition [6]: 92.8% | inhibition (Pyruvate kinase PKM [7]): 2.2% | inhibition (Pyruvate kinase PKM [8]): 50.1% | inhibition (Pyruvate kinase PKLR [9]): 71.8% | inhibition (Pyruvate kinase PKLR [10]): 75.5%

Cc1ccc2c(CCc3c[nH]c4ccccc34)c[nH]c2c1
IC50 (Pyruvate kinase; read-out: IC50): 294 µM

Cc1ccc2[nH]cc(CCc3c[nH]c4ccccc34)c2c1
IC50 (Pyruvate kinase; read-out: IC50): 32.8 µM

O=C(C(=O)c1c[nH]c2ccccc12)c1c[nH]c2ccccc12
IC50 (Pyruvate kinase; read-out: IC50): 50.2 µM

Clc1ccc2c(CCc3c[nH]c4ccccc34)c[nH]c2c1
IC50 (Pyruvate kinase; read-out: IC50): 272 µM

Fc1cc(Cl)cc2c(CCc3c[nH]c4ccccc34)c[nH]c12
IC50 (Pyruvate kinase; read-out: IC50): 4.6 µM | inhibition [6]: 88.2% | inhibition (Pyruvate kinase PKM [7]): 1.1% | inhibition (Pyruvate kinase PKM [8]): 80.9% | inhibition (Pyruvate kinase PKLR [9]): 85.4% | inhibition (Pyruvate kinase PKLR [10]): 95.7%

FC(F)(F)c1ccc2[nH]cc(CCc3c[nH]c4ccccc34)c2c1
IC50 (Pyruvate kinase; read-out: IC50): 13.3 µM | inhibition [11]: 88.4% | inhibition (Pyruvate kinase PKM [12]): 36.7% | inhibition (Pyruvate kinase PKM [13]): 95.2% | inhibition (Pyruvate kinase PKLR [14]): 91.4% | inhibition (Pyruvate kinase PKLR [15]): 85.4%

Fc1ccc2[nH]cc(CCc3c[nH]c4ccccc34)c2c1
IC50 (Pyruvate kinase; read-out: IC50): 19.8 µM | inhibition [16]: 108% | inhibition (Pyruvate kinase PKM [17]): 55.1% | inhibition (Pyruvate kinase PKM [18]): 85.5% | inhibition (Pyruvate kinase PKLR [19]): 99% | inhibition (Pyruvate kinase PKLR [20]): 101%

N#Cc1ccc2c(CCc3c[nH]c4ccccc34)c[nH]c2c1
IC50 (Pyruvate kinase): Not Active | MIC (Staphylococcus aureus): 16 µg/mL (≈ 56.1 µM)

COc1ccc2c(CCc3c[nH]c4ccccc34)c[nH]c2c1
IC50 (Pyruvate kinase): Not Active

COc1ccc2[nH]cc(CCc3c[nH]c4ccccc34)c2c1
IC50 (Pyruvate kinase; read-out: IC50): 38.6 µM

O=[N+]([O-])c1ccc2c(CCc3c[nH]c4ccccc34)c[nH]c2c1
IC50 (Pyruvate kinase; read-out: IC50): 0.9 µM | IC50 (Pyruvate kinase PKM [21]): 95.9 µM | IC50 (Pyruvate kinase PKM [22]): 54.6 µM | IC50 (Pyruvate kinase PKLR [23]): 18.2 µM | IC50 (Pyruvate kinase PKLR [24]): 21.5 µM | inhibition [25]: 59.6% | inhibition (Pyruvate kinase PKM [26]): 1.1% | inhibition (Pyruvate kinase PKM [27]): 2.8% | inhibition (Pyruvate kinase PKLR [28]): 3% | inhibition (Pyruvate kinase PKLR [29]): 3.3%

Clc1ccc2[nH]cc(CCc3c[nH]c4ccccc34)c2c1
IC50 (Pyruvate kinase; read-out: IC50): 12.5 µM | inhibition [11]: 114% | inhibition (Pyruvate kinase PKM [12]): 30.8% | inhibition (Pyruvate kinase PKM [13]): 98.7% | inhibition (Pyruvate kinase PKLR [14]): 95% | inhibition (Pyruvate kinase PKLR [15]): 103%
